“Also recorded” adds a separate entry of the source.
Experiments:
[1] = test system: PPC-1 prostate cancer cells; conditions: for LD50 values for TRAIL in the presence of the compound: compound 5 μM for 4 h, then TRAIL 20 h; for LD50 values for TRAIL in the presence of the compound / synergy with TRAIL to reduce the number of viable cells: PPC-1 cells; for synergy with TRAIL to reduce the number of viable cells: compound 5 μM, Figure 4
[2] = test system: human foreskin fibroblasts (HFF); format: cell-based; conditions: compound 5 μM alone or in the presence of TRAIL (100 ng/mL), Figure 5
MDA-MB-231 cells = test: Synergy with TNF to induce cell death in MDA-MB-231 cells; format: cell-based; conditions: compound 5 μM, various concentrations of TNF, Figure S2
Cellular assay = format: cell-based; conditions: Figure S1

| SMILES | LD50 values for TRAIL in the presence of the compound [1] [nM] | synergy with TRAIL to reduce the number of viable cells [1] | toxicity as a single agent ([1]; single agent, Figures 4, 5 and S1) | toxicity in normal cells [2] | synergy with TNF to induce cell death (MDA-MB-231 cells) | activity in a cellular assay (Cellular assay) |
| --- | --- | --- | --- | --- | --- | --- |
| CN[C@@H](C)C(=O)N[C@H](C(=O)N[C@@H](C)C(=O)Nc1cccc2ccccc12)C(C)C [Compound 8q] | 0.073 to 0.089 | sensitized TRAIL-resistant prostate cancer cells to apoptotic cell death; also recorded: act synergistically with TRAIL | no toxicity | No toxicity was observed |  |  |
| CN[C@@H](C)C(=O)N[C@H](C(=O)N1CCC[C@H]1C(=O)Nc1cccc2ccccc12)C(C)C [Compound 2b] | 0.073 to 0.089 | act synergistically with TRAIL |  | No toxicity was observed | acts synergistically |  |
| CC(C)[C@H](NC(=O)[C@H](C)N)C(=O)N[C@@H](C)C(=O)Nc1cccc2ccccc12 [Compound 8t] |  |  |  |  |  | did not show any activity |
| CN[C@@H](C)C(=O)N[C@H](C(=O)N1CCC[C@H]1C(=O)NNc1ccccc1)C(C)C [Compound 2a] |  | act synergistically with TRAIL |  |  |  |  |
| CN[C@@H](C)C(=O)N[C@H](C(=O)N1CCC[C@H]1C(=O)N[C@@H]1CCCc2ccccc21)C(C)C [Compound 2c] | 0.073 to 0.089 | act synergistically with TRAIL |  |  |  |  |
